Earlier results on one compound are cited in US20120283223A1, “CEREBRAL NERVE CELL NEOGENESIS AGENT” (priority 2010, published 2012).

In the series the test system is cerebral nerve cells. The following applies: in 3 to 4 weeks; Non-Patent Literature 1.

Consider `CNCCC(Oc1ccc(C(F)(F)F)cc1)c1ccccc1` (stereo not shown) [fluoxetine], for which the “number of cerebral nerve cells” value is on record as “increases”.
